Test results: US10696693B2, “Fused imidazole derivatives as TGF-beta inhibitors” (Rigel Pharmaceuticals, Inc., priority 2014, dated 2020)

Tests used:
TGF-β = experiment: AlphaScreen SureFire p-SMAD3 (Ser423/425) assay, TGF-β-stimulated cells; format: cell-based; settings: Mus musculus; p-SMAD3 (Ser423/425) AlphaScreen in cell lysate; MPC-11; TGF-β stimulation; read-out: TGF-β: inhibition of TGF-β signaling, TGF-β pSMAD (MPC-11)
Method in brief: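 The p-SMAD-3 (Ser423/425) SureFire assay measured phosphorylation of endogenous SMAD-3 in cell lysates. Cells were plated overnight in collagen-coated plates, exposed to three-fold serially diluted compounds for about 10 minutes, then stimulated with TGFβ. Lysates (5 μL) received acceptor bead mix for 2 hours, then donor beads for 1½ hours before AlphaScreen reading.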

GDF8 = experiment: AlphaScreen SureFire p-SMAD3 (Ser423/425) assay, GDF8-stimulated cells; format: cell-based; settings: Mus musculus, MPC-11; p-SMAD3 (Ser423/425) AlphaScreen in cell lysate; MPC11; GDF8 stimulation; read-out: GDF8: inhibition of GDF8 signaling, GDF pSMAD (MPC11)
Method in brief: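 Lysate (5 μL) went into 384-well shallow plates with 5 μL of Reaction Buffer, Activation Buffer and AlphaScreen Acceptor bead mix. Plates were sealed, kept dark and shaken for 2 hours at room temperature. Donor beads in dilution buffer (2 μL) were added for another 1½ hours, and p-SMAD3 signal was read on a Synergy-4 or Enspire reader.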

Row | SMILES | IC50 (TGF-β) [nM] | IC50 (GDF8) [nM]
1 | O=C(O)C1Cn2c(nc(-c3cc(F)cc(F)c3F)c2-c2ccc3ncnn3c2)N1 (stereo not shown) [Compound 118, 5-([1,2,4]triazolo[1,5-a]pyridin-6-yl)-6-(2,3,5-trifluorophenyl)-2,3-dihydro-1H-imidazo[1,2-a]imidazole-2-carboxylic acid] | < 50 | < 50
2 | CC(=O)N1c2nc(-c3cc(F)cc(F)c3F)c(-c3ccc4ncnn4c3)n2CC1C(=O)O (stereo not shown) [Compound 119, 5-([1,2,4]triazolo[1,5-a]pyridin-6-yl)-1-acetyl-6-(2,3,5-trifluorophenyl)-2,3-dihydro-1H-imidazo[1,2-a]imidazole-2-carboxylic acid] | < 50 | < 50
3 | CN(C)CCOc1cnc2ccc(-c3c(-c4cc(F)c(F)cc4F)nc4n3CCN4)cc2n1 [Compound 120, N,N-dimethyl-2-((7-(6-(2,4,5-trifluorophenyl)-2,3-dihydro-1H-imidazo[1,2-a]imidazol-5-yl)quinoxalin-2-yl)oxy)ethan-1-amine] | < 50 | < 50
4 | OCC1Cn2c(nc(-c3cc(F)cc(F)c3F)c2-c2ccc3ncnn3c2)N1 (stereo not shown) [Compound 121, (5-([1,2,4]triazolo[1,5-a]pyridin-6-yl)-6-(2,3,5-trifluorophenyl)-2,3-dihydro-1H-imidazo[1,2-a]imidazol-2-yl)methanol] | < 50 | < 50
5 | Fc1cc(F)c(-c2nc3n(c2-c2ccc4ncc(OCCN5CCOCC5)nc4c2)CCN3)cc1F [Compound 122, 4-(2-((7-(6-(2,4,5-trifluorophenyl)-2,3-dihydro-1H-imidazo[1,2-a]imidazol-5-yl)quinoxalin-2-yl)oxy)ethyl)morpholine] | 100 to 1000 | 50 to 100
6 | OCC1Cn2c(nc(-c3cc(F)cc(F)c3F)c2-c2ccc3ncccc3c2)N1 (stereo not shown) [Compound 123, (5-(quinolin-6-yl)-6-(2,3,5-trifluorophenyl)-2,3-dihydro-1H-imidazo[1,2-a]imidazol-2-yl)methanol] | 100 to 1000 | 50 to 100
7 | OCC1Cn2c(nc(-c3cc(F)cc(F)c3F)c2-c2ccc3nccnc3c2)N1 (stereo not shown) [Compound 124, (5-(quinoxalin-6-yl)-6-(2,3,5-trifluorophenyl)-2,3-dihydro-1H-imidazo[1,2-a]imidazol-2-yl)methanol] | 100 to 1000 | 100 to 1000
8 | O=C(O)C1Cn2c(nc(-c3cc(F)cc(F)c3F)c2-c2ccc3nccnc3c2)N1 (stereo not shown) [Compound 125, 5-(quinoxalin-6-yl)-6-(2,3,5-trifluorophenyl)-2,3-dihydro-1H-imidazo[1,2-a]imidazole-2-carboxylic acid] | < 50 | 50 to 100
9 | Fc1ccc(-c2nc3occn3c2-c2ccc3[nH]ncc3c2)cc1 [Compound 126, 6-(4-fluorophenyl)-5-(1H-indazol-5-yl)imidazo[2,1-b]oxazole] | 50 to 100 | < 50
10 | Fc1ccc(-c2nc3occn3c2-c2ccc3ncsc3c2)cc1 [Compound 127, 5-(benzo[d]thiazol-6-yl)-6-(4-fluorophenyl)imidazo[2,1-b]oxazole] | < 50 | < 50
11 | Fc1ccc(-c2nc3occn3c2-c2ccc3cn[nH]c3c2)cc1 [Compound 128, 6-(4-fluorophenyl)-5-(1H-indazol-6-yl)imidazo[1,2-b]oxaozle] | 100 to 1000 | 100 to 1000
12 | Fc1ccc(-c2nc3occn3c2-c2ccc3nccn3c2)cc1 [Compound 129, 6-(4-fluorophenyl)-5-(imidazo[1,2-a]pyridin-6-yl)imidazo[2,1-b]oxazole] | 50 to 100 | < 50
13 | Fc1ccc(-c2nc3occn3c2-c2ccc3nccnc3c2)cc1 [Compound 130, 6-(4-fluorophenyl)-5-(quinoxalin-6-yl)imidazo[2,1-b]oxazole] | 100 to 1000 | 100 to 1000
14 | Fc1ccc(-c2cn3ccoc3n2)cc1F [Compound 131, 6-(3,4-difluorophenyl)imidazo[2,1-b]oxazole] | > 1000 | > 1000
15 | Fc1ccc(-c2nc3occn3c2I)cc1F [Compound 132, 6-(3,4-difluorophenyl)-5-iodoimidazo[2,1-b]oxazole] | > 1000 | > 1000
16 | Fc1ccc(-c2nc3occn3c2-c2ccc3[nH]ncc3c2)cc1F [Compound 133, 6-(3,4-difluorophenyl)-5-(1H-indazol-5-yl)imidazo[2,1-b]oxazole] | 50 to 100 | 50 to 100
17 | Fc1ccc(-c2nc3occn3c2-c2ccc3cn[nH]c3c2)cc1F [Compound 134, 6-(3,4-difluorophenyl)-5-(1H-indazol-6-yl)imidazo[2,1-b]oxazole] | 100 to 1000 | 50 to 100
18 | Fc1ccc(-c2nc3occn3c2-c2ccc3ncsc3c2)cc1F [Compound 135, 5-(benzo[d]thiazol-6-yl)-6-(3,4-difluorophenyl)imidazo[2,1-b]oxazole] | 50 to 100 | < 50
19 | Fc1ccc(-c2nc3occn3c2-c2ccc3nccnc3c2)cc1F [Compound 136, 6-(3,4-difluorophenyl)-5-(quinoxalin-6-yl)imidazo[2,1-b]oxaole] | 100 to 1000 | 100 to 1000
20 | Fc1ccc(-c2nc3occn3c2-c2ccc3nccn3c2)cc1F [Compound 137, 6-(3,4-difluorophenyl)-5-(imidazo[1,2-a]pyridin-6-yl)imidazo[2,1-b]oxazole] | 50 to 100 | < 50
21 | Cc1cccc(-c2nc3occn3c2I)c1 [Compound 138, 5-iodo-6-(m-tolyl)imidazo[2,1-b]oxazole] | > 1000 | > 1000
22 | Cc1cccc(-c2nc3occn3c2-c2ccc3[nH]ncc3c2)c1 [Compound 139, 6-(m-tolyl)-5-(1H-indazol-5-yl)imidazo[2,1-b]oxazole] | < 50 | < 50
23 | Cc1cccc(-c2nc3occn3c2-c2ccc3cn[nH]c3c2)c1 [Compound 140, 6-(m-tolyl)-5-(1H-indazol-6-yl)imidazo[2,1-b]oxazole] | < 50 | < 50

More lines, now with the values ahead:

Row | IC50 (TGF-β) [nM] | IC50 (GDF8) [nM] | SMILES
24 | < 50 | < 50 | Cc1cccc(-c2nc3occn3c2-c2ccc3ncsc3c2)c1 [Compound 141, 5-(benzo[d]thiazo-6-yl)-6-(m-tolyl)imidazo[2,1-b]oxazole]
25 | < 50 | < 50 | Cc1cccc(-c2nc3occn3c2-c2ccc3nccnc3c2)c1 [Compound 142, 5-(quinoxalin-6-yl)-6-(m-tolyl)imidazo[2,1-b]oxazole]
26 | < 50 | < 50 | Cc1cccc(-c2nc3occn3c2-c2ccc3nccn3c2)c1 [Compound 143, 6-(m-tolyl)-5-(imidazo[1,2-a]pyridin-6-yl)imidazo[2,1-b]oxazole]
27 | 50 to 100 | < 50 | Cc1cccc(-c2nc3occn3c2-c2ccc3ncccc3c2)c1 [Compound 144, 5-(quinolin-6-yl)-6-(m-tolyl)imidazo[2,1-b]oxazole]
28 | 100 to 1000 | 50 to 100 | Fc1ccc(-c2nc3occn3c2-c2ccc3ncccc3c2)cc1F [Compound 145, 5-(quinolin-6-yl)-6-(3,4-difluorophenyl)imidazo[2,1-b]oxazole]
29 | 100 to 1000 | 100 to 1000 | Fc1ccc(-c2nc3occn3c2-c2ccc3ncccc3c2)cc1 [Compound 146, 5-(quinolin-6-yl)-6-(4-fluorophenyl)imidazo[2,1-b]oxazole]
30 | 50 to 100 | < 50 | Fc1cc(F)c(-c2nc3occn3c2-c2ccc3cn[nH]c3c2)cc1F [Compound 147, 6-(2,4,5-trifluorophenyl)-5-(1H-indazol-6-yl)imidazo[2,1-b]oxazole]
31 | 50 to 100 | < 50 | Fc1cc(F)c(-c2nc3occn3c2-c2ccc3nccn3c2)cc1F [Compound 148, 6-(2,4,5-trifluorophenyl)-5-(imidazo[1,2-a]pyridin-6-yl)imidazo[2,1-b]oxazole]
32 | 50 to 100 | < 50 | Fc1cc(F)c(-c2nc3occn3c2-c2ccc3nccnc3c2)cc1F [Compound 149, 5-(quinoxalin-6-yl)-6-(2,4,5-trifluorophenyl)imidazo[2,1-b]oxazole]
33 | 50 to 100 | < 50 | Fc1cc(F)c(-c2nc3occn3c2-c2ccc3ncccc3c2)cc1F [Compound 150, 5-(quinolin-6-yl)-6-(2,4,5-trifluorophenyl)imidazo[2,1-b]oxazole]
34 | < 50 | < 50 | Fc1cc(F)c(-c2nc3occn3c2-c2ccc3ncsc3c2)cc1F [Compound 151, 5-(benzo[d]thiazol-6-yl)-6-(2,4,5-trifluorophenyl)imidazo[2,1-b]oxazole]
35 | 50 to 100 | < 50 | Fc1cc(F)c(-c2nc3occn3c2-c2ccc3[nH]ncc3c2)cc1F [Compound 152, 6-(2,4,5-trifluorophenyl)-5-(1H-indazol-5-yl)imidazo[2,1-b]oxazole]
36 | > 1000 | > 1000 | Cc1ccc(-c2nc3occn3c2Br)c(F)c1 [Compound 153, 5-bromo-6-(2-fluoro-4-methylphenyl)imidazo[2,1-b]oxazole]
37 | 100 to 1000 | < 50 | Fc1ccc(-c2nc3occn3c2-c2ccc3[nH]ncc3c2)c(F)c1 [Compound 154, 6-(2,4-difluorophenyl)-5-(1H-indazol-5-yl)imidazo[2,1-b]oxazole]
38 | 100 to 1000 | 50 to 100 | Fc1ccc(-c2nc3occn3c2-c2ccc3cn[nH]c3c2)c(F)c1 [Compound 155, 6-(2,4-difluorophenyl)-5-(1H-indazol-6-yl)imidazo[2,1-b]oxazole]
